US11622980B2, “Compositions comprising prebiotics and probiotics” (OPTIBIOTIX LIMITED, priority 2017, dated 2023)
Entries after “also recorded” stand apart in the source; their conditions may differ. Where two headings read alike, the source gives them in different places.

Key:
[1] = system: gas producing members of the faecal microbiota; assay: Rate of gas and cumulative gas determination in non-pH controlled faecal culture; type: cell-based, healthy adults
Description: The aims of this experiment were to determine: (i) the total gas production over a 24 h fermentation period of each of carbohydrate of interest; (ii) the kinetics of gas production (rate) to evaluate the potential of increased abdominal discomfort in vivo upon the ingestion of the carbohydrates of interest; and (iii) the impact of using the selected carbohydrates in combination with LR on total and rate of gas production.
Determination of rate of gas was of particular importance as gas generation at specific time points rather than continuously at low or moderate levels may correlate with abdominal discomfort in vivo and important in relevance to consumer acceptability.
The experiments investigated the potential for gastrointestinal discomfort in vitro, through the determination of rate of gas and cumulative gas production in faecal culture. The cultures were non-pH controlled and six experimental runs were conducted using faeces from six different healthy adults. Headspace gas readings collected every 3 h over a 24 h period for rate of gas determination
The experimental design was as follows: • Faeces • Faeces+L. rhamnosus ATCC 53103 (negative control) • Faeces+Inulin HP (positive prebiotic control) • Faeces+Inulin HP+L. rhamnosus ATCC 53103 (positive synbiotic control) • Faeces+test carbohydrate • Faeces+test carbohydrate+L. rhamnosus ATCC 53103 Lactobacillus rhamnosus ATCC 53103 Test Dose Determination
Intervention dose used in the non-pH controlled gas determination experiments and the pH controlled faecal batch culture experiments was calculated based on the relative amounts of faecal inoculum and LR viable counts in the gut model (low dose, 0.75×10^4 cfu) and the relative concentrations of total bacteria to LR viable counts in the gut model (high dose, 5.36×10^4 cfu). Both doses were tested in the non-pH controlled gas determination faecal cultures to determine the possible role of LR in rate and cumulative gas production.

[2] = system: L. rhamnosus ATCC 53103; assay: Pure culture growth screening of L. rhamnosus ATCC 53103 on oligo/polysaccharides; type: cell-based, Lactobacillus rhamnosus
From the text: Commercially available prebiotics and other oligo and polysaccharides were first screened using a fast throughput automated growth culture system under anaerobic conditions to establish ability to support LR growth and define growth rates (1% w/v). The following test substrates had been initially identified for further consideration: Short chain fructooligosaccharides (scFOS), oligofructose P95 (FOS), Orafti ST, Orafti HP, Synergy 1, Bioecolians (glucooligosaccharides), gentiooligosaccharides, fucosyllactose, ß glucan (low/medium/high molecular weight; derived from oats), yeast ß glucan, arabinoxylan, xylooligosaccharides, caseinoglycomacropeptide (cgmp), raffinose, stachyose and Bio-Mos.
The aim of the experiment was to investigate the growth behavior of L. rhamnosus ATCC 53103 under a wide variety of commercially available, oligo and polysaccharides and to evaluate impact of test substrate physical characteristics on screening process and investigate growth on GOS synthesized by L. rhamnosus GR1 β-galactosidases. Results would be evaluated on the basis of: microbial growth (OD-Fermentation time); growth rate [μmax(h^−1)]; and change in optical density (max-min). Growth preferences of Lactobacillus rhamnosus ATCC 53103 would be used to determine target structures and carbohydrates for use as prebiotics for L. rhamnosus species or strains. […]

[3] = system: L. rhamnosus ATCC 53103; assay: qPCR determination of LR concentrations in anaerobic pH controlled faecal batch culture; type: cell-based, Lactobacillus rhamnosus; conditions: for LR concentration (growth) in faecal culture: pH controlled anaerobic faecal batch culture, 1% w/v substrate, LR 5.36×10^4 cfu
Description: Synbiotic potential of the selected oligosaccharides/blends was then to be determined in 24 h, anaerobic, pH and temperature controlled micro-scale faecal (10 ml working volume) faecal batch culture models.
The models had been optimised to work at 1% w/v test oligosaccharide concentration and carried out at pH6.8, which is relevant to the distal colon. Conditions in the distal colon (carbohydrate availability, very slow transit time) are more relevant to batch culture design. Fermentations were to be set up in parallel in identical conditions with the only variable being the test oligosaccharides. The following combinations were to be tested in each experimental run: • Faeces (prebiotic negative control) • Faeces+LR (synbiotic negative control) • Faeces+LR+GeOS (gentiooligosaccharides) • Faeces+LR+Cellb (cellobiose) • Faeces+LR+XOS (xylooligosaccharides) • Faeces+GeOS • Faeces+Cellb • Faeces+XOS • Feces+inulin (positive prebiotic control for test prebiotics) • Faeces+FOS (positive prebiotic control for test prebiotics) • Faeces+LR+inulin (positive prebiotic control for test synbiotics) • Faeces+LR+FOS (positive prebiotic control for test synbiotics)
All vessels, run in parallel, were to be inoculated with the same faecal sample and the experiment repeated using a faecal sample from each of six different healthy donors. […] levels in faecal culture using qPCR; and determination of the impact of each intervention on commensal faecal microbiome composition using FISH to ensure novel prebiotic will not be fermented by undesirable bacteria and ensure selectivity in a complex, competitive culture environment. Analysis targeted numerically dominant and functionally significant faecal bacterial groups including Bacteroides, Clostridium, Eubacterium, Propionibacterium, Bifidobacterium, Lactobacillus, Faecalibacterium, Atopobium, and Desulfovibrio.
(§1) An in vitro assessment of synbiotic efficacy in faecal culture using a pH controlled, anaerobic, temperature controlled cultures. The cultures were inoculated with faecal slurry of each of 6 healthy adults. The combinations included: • Faeces (prebiotic negative control) • Faeces+LR (synbiotic negative control) • Faeces+LR+GeOS (gentiooligosaccharides) • Faeces+LR+Cellb (cellobiose) • Faeces+LR+XOS (xylooligosaccharides) • Faeces+GeOS • Faeces+Cellb • Faeces+XOS • Feces+inulin (positive prebiotic control for test prebiotics) • Faeces+FOS (positive prebiotic control for test prebiotics) • Faeces+LR+inulin (positive prebiotic control for test synbiotics) • Faeces+LR+FOS (positive prebiotic control for test synbiotics)
No commensal LR was detected in the prebiotic only cultures (data not shown).
The primers for the real-time PCR determination was as follows: […]

[4] = system: Lactobacillus/Enterococcus (Lab158); assay: FISH of commensal bacteria in pH controlled faecal culture, probe Lab158; type: cell-based, healthy adults
Description: (§2) All vessels, run in parallel, were to be inoculated with the same faecal sample and the experiment repeated using a faecal sample from each of six different healthy donors. Samples were to be obtained at inoculation (0 h) and then at 8 and 24 h of fermentation for: determination of LR levels in faecal culture using qPCR; and determination of the impact of each intervention on commensal faecal microbiome composition using FISH to ensure novel prebiotic will not be fermented by undesirable bacteria and ensure selectivity in a complex, competitive culture environment. Analysis targeted numerically dominant and functionally significant faecal bacterial groups including Bacteroides, Clostridium, Eubacterium, Propionibacterium, Bifidobacterium, Lactobacillus, Faecalibacterium, Atopobium, and Desulfovibrio.
(§3) An in vitro assessment of synbiotic efficacy in faecal culture using a pH controlled, anaerobic, temperature controlled cultures. The cultures were inoculated with faecal slurry of each of 6 healthy adults. […]
(§4) Fluorescent in situ hybridisation (FISH) experiments were then conducted to investigate the impact on commensal gut microbiome bacterial populations in faecal culture and the fluorescently labelled micrographs are shown in FIG. 20. FISH is a fully quantitative methodology for determining bacterial concentrations at the genus and species level. […]

[5] = system: Bacteroides/Prevotella (Bac303); assay: FISH of commensal bacteria in pH controlled faecal culture, probe Bac303; type: cell-based, healthy adults; conditions: pH controlled anaerobic faecal culture
Description: as §2, §3, §4

[6] = system: Ato291 (Atopobium); assay: FISH of commensal bacteria in pH controlled faecal culture, probe Ato291; type: cell-based, healthy adults; conditions: pH controlled anaerobic faecal culture, FIG. 25
Description: as §2, §3, §4

[7] = system: L. rhamnosus ATCC 53103; assay: Organic acid (SCFA and lactate) synthesis in pH controlled faecal batch culture; type: cell-based, Lactobacillus rhamnosus; conditions: pH controlled faecal batch cultures with LR
From the text: Lastly, determination of faecal microbiome activity through organic acid (SOFA and lactate) measurement was to be conducted at each sampling point. Information will indicate potential fermentation rates of each novel prebiotic.
as §1

[8] = system: Lactobacillus plantarum 2830 (ECGC 13110402); assay: Pure culture growth of Lactobacillus plantarum 2830 (LP-LDL) on carbohydrate sources; type: cell-based; conditions: modified MRS, glucose (1% wt/vol) substituted, anaerobic, 37° C., OD 620 nm
Description: Similar growth experiments to Example 1 above were conducted on Lactobacillus plantarum 2830 (ECGC 13110402) on a range of substrates including, MRS+LP, Glucose, Lactose, LP GOS, alphaGOS (a proprietary GOS product), Raffinose, Galactose, Cellobiose, FOS (short chain), Sucrose, GOS I (a proprietary GOS product), GOS II (a proprietary GOS product), GOS III (a proprietary GOS product) and Gentiooligosaccharides (GeOS). […] Experiments were carried out under anaerobic conditions on a 96-well microtiter plate system (FLUOstar Omega, BMG LABTECH) in a final volume of 200 μL using an inoculum size 10% (w/v), previously diluted to obtain an initial OD620 nm=0.2. Incubation was conducted under anaerobic conditions at 37° C. with interval shaking at 500 rpm every 5 min. Optical density measurements at 620 nm were employed to assess microbial growth.

Compound	donors sensitive to the test oligosaccharide (total gas production) [1]	rate of gas production [1]	tolerance by donors (total gas and rate of gas) [1]	lag phase ([2]; pure culture growth curves, 1% (w/v) substrate, FIG. 9)	growth of LR in pure culture ([2]; pure culture, modified MRS, 1% w/v test carbohydrate)	rate of gas production ([1]; 24 h non-pH controlled faecal culture, readings every 3 h, relative to inulin)	cumulative gas production ([1]; 24 h non-pH controlled faecal culture, relative to inulin)	donors sensitive to the test oligosaccharide (total gas production) ([1]; 24 h non-pH controlled faecal fermentation, six faecal donors)	volunteers showing an increase of L. rhamnosus ATCC 53103 concentrations ([3]; 0, 10 and 24 h pH controlled faecal batch culture, six volunteers, qPCR)	LR concentration (growth) in faecal culture ([3]; qPCR)	LR concentration (growth) in faecal culture ([3]; qPCR, listed as Cellobiose)	dependence of the effect on LR on faecal donor ([3]; pH controlled faecal batch cultures, six donors)	responders within the 6 faecal donors (Lab158) ([4]; compared to the positive controls (inulin and FOS))	Lab158 (Lactobacillus/Enterococcus) concentration ([4]; pH controlled anaerobic faecal culture, six healthy adults, FISH)	Bacteroides/Prevotella (Bac303) concentration [5]	Ato291 concentrations [6]	LR activity (organic acid synthesis) [7]	growth rates of LP-LDL [8]	growth yields of LP-LDL [8]
gentiooligosaccharides [GeOS]	Donors 4 and 7	comparable to that of inulin	tolerated the best by the majority of donors																
O=C[C@H](O)[C@@H](O)[C@H](O[C@@H]1O[C@H](CO)[C@@H](O)[C@H](O)[C@H]1O)[C@H](O)CO [cellobiose]				notably longer lag phase	can grow in pure culture	comparable to that of inulin	comparable to that of inulin	Donors 4 and 7; also recorded: donor 5	Five out of the six	growth of LR	best growth substrate for LR; also recorded: increases in LR concentration	not dependent on faecal donor enterotype	More responders	significant increase	some impact	some increases	mediated increases in LR concentration and activity	highest growth rates	highest growth yields
xylooligosaccharides [XOS]	Donors 4 and 7	comparable to that of inulin	tolerated the best by the majority of donors																
